Measured values reported in ChEMBL document CHEMBL3596163, “Discovery of imidazo[1,5-a]pyridines and -pyrimidines as potent and selective RORc inverse agonists” (Bioorg Med Chem Lett, 2015).
The source made the active and inactive calls. No cut-off for these calls is given here.

Assays:
[1] = target: T1, Oxysterols receptor LXR-beta (Homo sapiens, UniProt P55055); test: Agonist activity at GAL4-fused human LXRbeta expressed in HEK293T cells assessed as activation of basal transcriptional activity after 20 hrs by dual-glo luciferase reporter gene assay; format: cell-based, HEK-293T
T1 sequence (P55055 whole entry): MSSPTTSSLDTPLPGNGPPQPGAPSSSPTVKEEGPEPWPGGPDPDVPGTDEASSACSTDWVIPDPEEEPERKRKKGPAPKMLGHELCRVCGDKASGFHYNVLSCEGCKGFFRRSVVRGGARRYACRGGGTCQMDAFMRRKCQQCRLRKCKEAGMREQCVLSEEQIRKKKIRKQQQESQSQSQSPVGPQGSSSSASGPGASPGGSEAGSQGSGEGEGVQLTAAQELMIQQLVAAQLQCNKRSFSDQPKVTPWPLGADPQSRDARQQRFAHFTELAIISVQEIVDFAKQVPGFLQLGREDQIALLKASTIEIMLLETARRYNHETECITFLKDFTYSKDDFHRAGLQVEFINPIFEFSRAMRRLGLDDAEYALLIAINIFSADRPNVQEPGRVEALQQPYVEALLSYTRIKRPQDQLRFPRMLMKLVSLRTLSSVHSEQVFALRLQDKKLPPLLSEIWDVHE

[2] = target: T2, Nuclear receptor ROR-alpha (Homo sapiens, UniProt P35398); test: Inverse agonist activity at GAL4-fused human RORa expressed in HEK293T cells assessed as suppression of basal transcriptional activity after 20 hrs by dual-glo luciferase reporter gene assay; format: cell-based, HEK-293T
T2 sequence (P35398 whole entry): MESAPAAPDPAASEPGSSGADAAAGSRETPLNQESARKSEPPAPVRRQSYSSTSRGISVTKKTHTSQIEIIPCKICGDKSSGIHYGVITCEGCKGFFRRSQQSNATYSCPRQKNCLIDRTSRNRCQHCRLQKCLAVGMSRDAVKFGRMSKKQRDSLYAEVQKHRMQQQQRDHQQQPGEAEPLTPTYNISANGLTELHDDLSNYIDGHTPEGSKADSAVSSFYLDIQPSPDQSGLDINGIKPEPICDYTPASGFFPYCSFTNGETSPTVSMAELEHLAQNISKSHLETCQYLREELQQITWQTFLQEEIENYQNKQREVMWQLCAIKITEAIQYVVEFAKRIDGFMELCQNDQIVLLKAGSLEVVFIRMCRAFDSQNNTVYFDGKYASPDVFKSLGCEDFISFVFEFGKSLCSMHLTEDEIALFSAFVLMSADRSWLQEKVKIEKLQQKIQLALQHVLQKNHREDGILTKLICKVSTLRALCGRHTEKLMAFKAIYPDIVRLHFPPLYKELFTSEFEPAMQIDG

PBMC [3] = test: Antiinflammatory activity in human PBMC assessed as inhibition of IL-17 production after 48 hrs by Sandwich ELISA relative to control; format: functional
[4] = target: T3, Oxysterols receptor LXR-alpha (Homo sapiens, UniProt Q13133); test: Agonist activity at GAL4-fused human LXRalpha expressed in HEK293T cells assessed as activation of basal transcriptional activity after 20 hrs by dual-glo luciferase reporter gene assay; format: cell-based, HEK-293T
T3 sequence (Q13133 whole entry): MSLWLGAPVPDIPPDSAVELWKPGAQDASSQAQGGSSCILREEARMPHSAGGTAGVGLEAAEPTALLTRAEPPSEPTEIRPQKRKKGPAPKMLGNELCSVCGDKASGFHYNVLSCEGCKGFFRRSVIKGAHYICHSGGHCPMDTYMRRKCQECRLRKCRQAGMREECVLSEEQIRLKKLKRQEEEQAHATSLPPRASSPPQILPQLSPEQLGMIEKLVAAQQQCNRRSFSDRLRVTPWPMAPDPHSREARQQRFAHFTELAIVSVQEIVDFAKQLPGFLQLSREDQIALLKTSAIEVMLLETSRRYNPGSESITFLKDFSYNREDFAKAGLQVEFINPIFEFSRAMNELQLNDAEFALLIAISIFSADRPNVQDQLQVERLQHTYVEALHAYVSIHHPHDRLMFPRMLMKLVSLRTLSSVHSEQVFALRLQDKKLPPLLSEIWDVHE

[5] = Lipophilicity, log D of the compound at pH 7.4; format: physicochemical; conditions: buffer
[6] = target: T4, Oxysterols receptor LXR-alpha (Homo sapiens) (UniProt Q13133); test: Antagonist activity at GAL4-fused human LXRalpha expressed in HEK293T cells assessed as inhibition of T0901317-induced basal transcriptional activity up to 10 uM after 20 hrs by dual-glo luciferase reporter gene assay; format: cell-based; conditions: HEK-293T
T4 sequence (whole entry): T3 sequence (Q13133 whole entry)

PBMC [7] = test: Cytotoxicity against human PBMC assessed as effect on cell physiology after 48 hrs by CellTiter-Glo assay; format: cell-based
PBMC [8] = test: Antiinflammatory activity in human PBMC assessed as inhibition of IL-17 production after 48 hrs by Sandwich ELISA; format: functional, cell-based
[9] = target: T5, Nuclear receptor subfamily 1 group I member 2 (Homo sapiens, UniProt O75469); test: Antagonist activity at GAL4-fused human PXR expressed in HEK293T cells assessed as inhibition of T0901317-induced basal transcriptional activity up to 10 uM after 20 hrs by dual-glo luciferase reporter gene assay; format: cell-based; conditions: hek-293t
T5 sequence (O75469 whole entry): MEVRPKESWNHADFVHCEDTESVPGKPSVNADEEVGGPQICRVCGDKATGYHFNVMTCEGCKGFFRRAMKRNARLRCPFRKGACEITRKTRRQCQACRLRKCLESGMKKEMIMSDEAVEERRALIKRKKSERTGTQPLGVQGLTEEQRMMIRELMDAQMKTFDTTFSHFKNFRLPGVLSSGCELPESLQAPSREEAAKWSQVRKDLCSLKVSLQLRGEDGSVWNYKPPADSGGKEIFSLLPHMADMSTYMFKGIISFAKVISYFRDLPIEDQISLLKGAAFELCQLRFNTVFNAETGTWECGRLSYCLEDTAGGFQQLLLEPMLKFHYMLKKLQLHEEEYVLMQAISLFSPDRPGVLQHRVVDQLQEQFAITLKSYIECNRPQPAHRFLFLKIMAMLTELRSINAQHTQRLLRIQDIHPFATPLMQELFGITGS

Structure (SMILES)	EC50 [1]	EC50 [2]	%max (PBMC [3])	EC50 [4]	logD [5]	inhibition [6]	EC50 (PBMC [7])	EC50 (PBMC [8])	inhibition (INH) [9]
O=C(O)c1ccc(-c2nc(C(=O)c3c(Cl)cccc3C(F)(F)F)n3ccccc23)cc1	> 10 µM	> 10 µM	69%	> 10 µM	1.5	inactive	> 10 µM	0.23 µM	Not Active
O=C(O)c1ccc(-c2nc(C(=O)c3c(Cl)cccc3C3CC3)n3cccnc23)cc1O	> 10 µM	> 10 µM	73%	> 10 µM	1.5	inactive	> 10 µM	0.03 µM	Not Active
O=C(O)c1ccc(-c2nc(C(=O)c3c(Cl)cccc3C(F)(F)F)n3c2CCCC3)c(F)c1	> 10 µM	> 10 µM	64%	> 10 µM	1.3	inactive	> 10 µM	0.23 µM	Not Active
O=C(O)c1ccc(-c2nc(C(=O)c3c(Cl)cccc3C(F)(F)F)n3ccccc23)cc1O	> 10 µM	> 10 µM	70%	> 10 µM	2.5	inactive	> 10 µM	0.017 µM	Not Active
O=C(O)c1ccc(-c2nc(C(=O)c3c(Cl)cccc3C3CC3)n3c2CCCC3)c(F)c1	> 10 µM	> 10 µM	72%	> 10 µM	1.6	inactive	> 10 µM	0.3 µM	Not Active
O=C(O)c1ccc(-c2nc(C(=O)c3c(Cl)cccc3C(F)(F)F)n3ccccc23)c(F)c1	> 10 µM	> 10 µM	63%	> 10 µM	1.8	inactive	> 10 µM	0.12 µM	Not Active
